From PubChem BioAssay (NCI) come the findings set out here.

Among the test systems are SF-295 CNS; PC-3 prostate; HT29 colon; HCT-15 colon; KM12 colon; MCF7 breast; SF-268 CNS; CCRF-CEM leukemia; LOX IMVI melanoma; HL-60(TB) leukemia.
Common to all, as to test: NCI-60 cell line screen, 48 h

“And” between values parts separate entries of the source, which are not always exact repeats. Identical values can stand only once.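 Dose response: 5 concentrations. Exposure: 48 h. Format: 96-well plates. Endpoint: linear interpolation; highest concentration if not reached. Abbreviation: GI50, concentration required for 50% inhibition of growth. TGI denotes the concentration required for complete inhibition of growth.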

Take `COc1cc([C@@H]2OC[C@@H]3C(c4cc(OC)c5c(c4)OCO5)OC[C@@H]32)cc(OC)c1OC` (stereo not given in full): the TGI with SF-295 CNS, in the test on PC-3 prostate, in the test with HT29 colon, with HCT-15 colon, in the test with KM12 colon and with MCF7 breast was above 100 µM each time. The TGI with SF-268 CNS, with CCRF-CEM leukemia and in the test with LOX IMVI melanoma was above 100 µM in each case.
Take `CCC(C)(CC(C)(C)C(=O)NCC(=O)NC(Cc1ccccc1)C(=O)NC(Cc1ccccc1)C(=O)NCC(=O)NC1CC(OC2CC(O)(C(=O)CO)Cc3c(O)c4c(c(O)c32)C(=O)c2c(OC)cccc2C4=O)OC(C)C1O)C(=O)NCC(C)O` (stereo not given): the GI50 in the test on SF-295 CNS was 75.9 µg/mL; in the test with PC-3 prostate it was above 150 µg/mL; in the test on HT29 colon, 91.9 µg/mL; in the test with HCT-15 colon, 1.5 µg/mL; in the test on KM12 colon it was 66.3 µg/mL; in the test on HL-60(TB) leukemia it was 1.32 µg/mL and 62.8 µg/mL. The GI50 with MCF7 breast was 22 µg/mL; in the test on CCRF-CEM leukemia, 3.35 µg/mL and 98.9 µg/mL; in the test on LOX IMVI melanoma, 35.2 µg/mL. Moreover, the TGI was above 150 µg/mL with SF-295 CNS; above 150 µg/mL in the test on PC-3 prostate; above 150 µg/mL with HT29 colon; 1.5 µg/mL with HCT-15 colon; above 150 µg/mL in the test with KM12 colon; above 150 µg/mL in the test with MCF7 breast. Further, the TGI in the test with CCRF-CEM leukemia and with LOX IMVI melanoma was above 150 µg/mL each time.
Regarding `COc1ccc(C(=O)OC2C(OC3C(O)COC(O[C@H]4C[C@H]5[C@@H]6CC=C7C[C@@H](O)CC[C@]7(C)[C@H]6CC[C@]5(C)[C@H]4[C@H](C)C(=O)CCC(C)C)C3OC(N)=O)OCC(O)C2O)cc1` (stereo not given in full), the GI50 in the test with SF-295 CNS was below 0.003 µM; in the test with PC-3 prostate it was 0.0073 µM; in the test on HT29 colon, 0.0737 µM; in the test with HCT-15 colon it was 1.04 µM; in the test on KM12 colon it was 0.175 µM; with MCF7 breast it was 0.00855 µM. In addition, the GI50 in the test with SF-268 CNS is 0.0427 µM; with CCRF-CEM leukemia, below 0.003 µM; in the test on LOX IMVI melanoma it was 0.0137 µM. The TGI in the test with SF-295 CNS was 0.00922 µM; in the test with PC-3 prostate, 0.473 µM; with HT29 colon, 4.27 µM; in the test with HCT-15 colon it was 5.44 µM; with KM12 colon, 4.37 µM; with MCF7 breast it was 0.635 µM. The values for the TGI in the test on SF-268 CNS, with CCRF-CEM leukemia and in the test with LOX IMVI melanoma were 1.49 µM, 0.0966 µM and 0.158 µM, respectively.
As to `c1ccc2[nH]c(-c3ccc(-c4nccc5c4[nH]c4ccccc45)cc3)nc2c1`, the GI50 in the test with SF-295 CNS is 1.92 µM; with PC-3 prostate, 8.59 µM; in the test on HT29 colon it was 2.19 µM; with HCT-15 colon, 2.22 µM; with KM12 colon, 3.59 µM; with HL-60(TB) leukemia, 2.03 µM. Further, the GI50 in the test on MCF7 breast was 3.56 µM; with SF-268 CNS it was 2.89 µM; with CCRF-CEM leukemia, 3.12 µM. Further, the TGI with SF-295 CNS is 4 µM; in the test with PC-3 prostate it was 25.1 µM; in the test on HT29 colon, 4.43 µM; in the test with HCT-15 colon it was 5.61 µM; in the test on KM12 colon, 15.7 µM; with HL-60(TB) leukemia it was 4.59 µM. Further, the TGI in the test on MCF7 breast was 17.2 µM; in the test with SF-268 CNS it was 10.2 µM; with CCRF-CEM leukemia, 9.12 µM.
For the molecule `O=C(O)CNC(=O)c1ccc(-c2ccccc2)cc1`, the TGI in the test with SF-295 CNS, in the test with PC-3 prostate, with HCT-15 colon, in the test with KM12 colon, in the test with HL-60(TB) leukemia and in the test on MCF7 breast was above 100 µM each time. In addition, the TGI in the test on SF-268 CNS, with CCRF-CEM leukemia and with LOX IMVI melanoma was above 100 µM each time.
On to `C(#Cc1ccccc1C#Cc1cccs1)c1cccs1`, for which the GI50 in the test with SF-295 CNS is 30.6 µM; in the test on PC-3 prostate, 25.4 µM; in the test with HT29 colon it was 23.5 µM; with HCT-15 colon it was 24.6 µM; with KM12 colon, 29.5 µM; with MCF7 breast, 43.3 µM. Also, the figures for the GI50 in the test on SF-268 CNS, in the test with CCRF-CEM leukemia and in the test on LOX IMVI melanoma were above 100 µM, 31.9 µM and 23.7 µM, respectively. Also, the TGI with SF-295 CNS, in the test with PC-3 prostate, in the test on HT29 colon, in the test on HCT-15 colon, in the test with KM12 colon and in the test with MCF7 breast was above 100 µM each time. Also, the TGI in the test with SF-268 CNS is above 100 µM; in the test on CCRF-CEM leukemia, above 100 µM; in the test on LOX IMVI melanoma, 53.8 µM.
On to `COc1ccc2cc(C(=O)/C=C/c3ccc(Cl)cc3Cl)ccc2c1`, for which the GI50 in the test on SF-295 CNS is 35.9 µM; in the test on PC-3 prostate, 30.8 µM; in the test on HT29 colon it was 6.63 µM; in the test with HCT-15 colon it was 9.17 µM; with KM12 colon, 14.3 µM; in the test with MCF7 breast, 18.1 µM. In addition, the figures for the GI50 with SF-268 CNS and in the test on CCRF-CEM leukemia were above 100 µM and 6.74 µM, respectively. Moreover, the TGI is above 100 µM in the test on SF-295 CNS; above 100 µM in the test on PC-3 prostate; 51.3 µM in the test with HT29 colon; 29.7 µM in the test on HCT-15 colon; 35 µM in the test with KM12 colon; above 100 µM in the test with MCF7 breast. Moreover, the TGI in the test with SF-268 CNS and in the test with CCRF-CEM leukemia was above 100 µM throughout.
For `CC(C)(C)n1cc(-c2ccnc(NCCCNS(=O)(=O)c3ccc(C(F)(F)F)cc3)c2)c(-c2cccc(O)c2)n1`, the GI50 was 1.69 µM with SF-295 CNS; 1.64 µM with PC-3 prostate; 1.47 µM with HCT-15 colon; 2.81 µM in the test with HL-60(TB) leukemia; 1.78 µM with MCF7 breast; 1.72 µM in the test with LOX IMVI melanoma. Moreover, the TGI in the test with SF-295 CNS is 3.12 µM; with PC-3 prostate, 3.72 µM; with HCT-15 colon, 2.93 µM; in the test with HL-60(TB) leukemia, 7.74 µM; in the test on MCF7 breast, 3.63 µM; in the test on LOX IMVI melanoma, 3.09 µM.
`COc1ccc2c(c1)c(=O)oc1cc(OC/C(C)=N\O)ccc12`: the GI50 in the test on SF-295 CNS is 37.9 µM; in the test on PC-3 prostate, above 100 µM; in the test with HT29 colon it was above 100 µM; with HCT-15 colon it was above 100 µM; in the test with KM12 colon it was above 100 µM; in the test with MCF7 breast it was above 100 µM. In addition, the GI50 is 37.7 µM in the test on SF-268 CNS, above 100 µM in the test on CCRF-CEM leukemia and above 100 µM with LOX IMVI melanoma. For the same molecule, the TGI with SF-295 CNS, in the test with PC-3 prostate, in the test with HT29 colon, in the test with HCT-15 colon, with KM12 colon and in the test with MCF7 breast was above 100 µM in each case. The TGI with SF-268 CNS, in the test with CCRF-CEM leukemia and with LOX IMVI melanoma was above 100 µM each time.
